For series [1], the system named is HIV-1BaL Env-pseudotyped Luc-expressing virus. Format: cell-based. The following applies: PHA-stimulated PBMCs; opioid 10 nM.
The subject of series [2] is GHOST CCR5 cells. Nature of the series: Cytotoxicity. The note with it: GHOST CCR5 cells; XTT; triplicate.
The subject of series [3] is HIV-1BaL. Nature of the series: Anti-HIV-1BaL activity. The note with it: GHOST CCR5 cells.
The subject of series [4] is HIV. The note with it: primary human astrocytes, cited from earlier work.
Series [5] in a line: Cytotoxicity. The following applies: human.
The target in series [6] is rhesus macaque CCR5 expressed in Chem-1 cells (Macaca mulatta, UniProt P61813). Nature of the series: CCR5 competitive radioligand binding assay.
Series [7] addresses CCR5 (HOS-CCR5 cells) (Homo sapiens, UniProt P51681). Nature of the series: Calcium mobilization assay in HOS-CCR5 cells. It is filed as cell-based. The following applies: for CCR5 activation (agonism) in Ca2+ mobilization assay: within the range of concentrations tested. A general note: Calcium flux is commonly read through the fluorescence of an indicator in the cells.
Series [8] relates to HIV-1BaL Env-pseudotyped Luc-expressing virus (HIV-1-Luc). Nature of the series: HIV-1-Luc infection assay in nonstimulated PBMCs. Format: cell-based. The following applies: 1000 nM.
The target of series [9] is mouse MOR expressed in CHO cell lines (mMOR-CHO) (Mus musculus, UniProt P42866). Nature of the series: MOR competitive radioligand binding assay. The following applies: ratio of Ki values vs VZMC001.
Sequence of mouse MOR expressed in CHO cell lines (mMOR-CHO) (P42866 whole entry): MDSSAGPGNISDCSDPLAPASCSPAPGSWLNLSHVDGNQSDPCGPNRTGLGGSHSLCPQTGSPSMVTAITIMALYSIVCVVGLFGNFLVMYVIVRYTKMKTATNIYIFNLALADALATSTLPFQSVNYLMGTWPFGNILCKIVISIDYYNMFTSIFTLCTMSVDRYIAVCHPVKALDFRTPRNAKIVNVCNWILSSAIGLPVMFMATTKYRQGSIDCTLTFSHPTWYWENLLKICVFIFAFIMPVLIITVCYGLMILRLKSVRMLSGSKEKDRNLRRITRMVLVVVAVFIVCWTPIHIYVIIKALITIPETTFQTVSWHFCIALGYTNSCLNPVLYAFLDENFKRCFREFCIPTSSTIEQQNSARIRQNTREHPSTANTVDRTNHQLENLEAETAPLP
Series [10] has as its system HIV-1BaL. Nature of the series: HIV-1BaL infection assay in OPRM1- or control plasmid-transfected TZM-bl cells. Format: cell-based. The following applies: Human immunodeficiency virus 1, TZM-bl, read-out: Inhibition of HIV-1BaL infection EC50, TZM-bl cells containing only control plasmid.
In series [11] the target is mouse mu opioid receptor (mMOR-CHO) (Mus musculus, UniProt P42866). Briefly: Calcium mobilization assay in mMOR-CHO cells. The following applies: agonist mode, varying concentrations. It is filed as cell-based.
Sequence of mouse mu opioid receptor (mMOR-CHO) (P42866 whole entry): as above
In series [12] the target is CCR5 (Macaca mulatta) (UniProt P61813). Nature of the series: radioligand binding. The note with it: cited from earlier work.

Read-outs that look alike come from different tables or passages of the source. A value given as a limit tells only on which side of the number the result lay.

Sequence of CCR5 (HOS-CCR5 cells) (P51681 whole entry): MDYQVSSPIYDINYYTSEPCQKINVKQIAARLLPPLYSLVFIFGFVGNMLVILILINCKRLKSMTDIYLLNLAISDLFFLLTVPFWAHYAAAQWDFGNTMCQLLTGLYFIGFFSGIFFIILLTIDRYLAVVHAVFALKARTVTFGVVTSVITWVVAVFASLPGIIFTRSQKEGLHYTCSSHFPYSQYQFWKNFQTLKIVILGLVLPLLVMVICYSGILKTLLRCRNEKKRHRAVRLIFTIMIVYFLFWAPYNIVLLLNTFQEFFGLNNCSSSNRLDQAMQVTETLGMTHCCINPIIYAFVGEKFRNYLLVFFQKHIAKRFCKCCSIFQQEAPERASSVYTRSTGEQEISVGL
Sequence of MIP-1α (P10147 27-92): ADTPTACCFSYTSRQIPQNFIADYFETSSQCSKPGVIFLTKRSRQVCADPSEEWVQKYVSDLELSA

As to `C[C@@H](NC(=O)[C@@H](N)Cc1ccc(O)cc1)C(=O)NCC(=O)N(C)[C@@H](Cc1ccccc1)C(=O)NCCO` [DAMGO, [D-Ala^2-MePhe^4-Gly(ol)^5]enkephalin], the “effect on HIV expression” value in [1] is given as “remarkable increases in HIV expression”.

Turning to `Cc1nnc(C(C)C)n1C1C[C@H]2CC[C@@H](C1)N2CC[C@H](NC(=O)C1CCC(F)(F)CC1)c1ccc(NC(=O)COCC(=O)NCCCCCCCNC(=O)COCC(=O)N[C@@H]2CC[C@@]3(O)[C@H]4Cc5ccc(O)c6c5[C@@]3(CCN4CC3CC3)[C@H]2O6)cc1` (some centres unmarked) [VZMC001, reference compound], in series [2], the “Cytotoxicity TC50” value was more than 100000 nM. For the same compound, in [3] (concentrations up to 100 μM, 0 μM defined as 100%), the RT activity is recorded as 107.6–226.1%. Besides, the “fold higher inhibition of HIV entry than maraviroc” value in series [4] (with morphine) is 7 fold; in series [4] (without morphine), 3.3 fold.

What is called viability is a read-out of living cells in per cent, often relative to untreated cells. By EC50 is commonly meant the midpoint of the concentration-response curve. `CC(C)c1nnc(CCNC(=O)COCC(=O)NCCCCCCCNC(=O)COCC(=O)N[C@@H]2CC[C@@]3(O)[C@H]4Cc5ccc(O)c6c5[C@@]3(CCN4CC3CC3)[C@H]2O6)n1C1C[C@H]2CC[C@@H](C1)N2CC[C@H](NC(=O)C1CCC(F)(F)CC1)c1ccccc1` (some centres unmarked) [VZMC013]: in series [2], the “Cytotoxicity TC50” value was more than 100000 nM. In series [5], the viability at 6 days, 100 µM was approximately 100%. The “fold greater CCR5 binding affinity than monovalent VZMC014” value in [6] (ratio of Ki values vs VZMC014) is listed as 12 fold. In addition, in series [7] (agonist mode), the “CCR5 activation (agonism) in Ca2+ mobilization assay” value is on record as “none of these compounds appeared to activate CCR5”. Besides, in series [7] (ratio of IC50 values vs VZMC001), the “fold more potent than VZMC001 in inhibiting CCL5-stimulated Ca2+ mobilization” value is 2.2 fold. In addition, in series [3], the “TI (therapeutic index, TC50/EC50)” value is more than 1075. Further, the “Inhibition of HIV-1-Luc infectivity” value in series [8] is reported as “nearly complete blockade”. Besides, the “fold higher MOR binding affinity than VZMC001” value in series [9] came out at 8.6 fold. Moreover, in series [10], the EC50 came to 610 nM. Further, the “agonism in Ca2+ mobilization assay” value in series [11] is on record as “No agonism was observed”.

Usually IC50 stands for the concentration that inhibits the measured activity by half. As to `CNC(=O)COCC(=O)NCCCCCCCNC(=O)COCC(=O)NCCc1nnc(C(C)C)n1[C@@H]1C[C@H]2CC[C@@H](C1)N2CC[C@H](NC(=O)C1CCC(F)(F)CC1)c1ccccc1` [VZMC014], the IC50 in series [7] came out at 116 nM. In series [7] (agonist mode), the “CCR5 activation (agonism) in Ca2+ mobilization assay” value is given as “none of these compounds appeared to activate CCR5”.

With `CC(C)c1nnc(CCNC(=O)COCC(=O)NCCCCCNC(=O)COCC(=O)N[C@@H]2CC[C@@]3(O)[C@H]4Cc5ccc(O)c6c5[C@@]3(CCN4CC3CC3)[C@H]2O6)n1C1C[C@H]2CC[C@@H](C1)N2CC[C@H](NC(=O)C1CCC(F)(F)CC1)c1ccccc1` (some centres unmarked) [VZMC019], the 50% inhibitory concentration (IC50) in series [6] was more than 10000 nM.

With “CCL5: C─C motif chemokine ligand 5, CCR5 agonist control [reference compound]”, the EC50 in series [7] (read-out: Ca2+ mobilization agonism EC50, agonist mode, HOS-CCR5 cells with Gqi5) stood at 155 ± 6.58 nM.

What is called Kd is the equilibrium constant for the complex coming apart. As for MIP-1α (from UniProt P10147), in series [12], the Kd is 0.31 nM.

The values above are taken from article PMC10548452 (Journal of medicinal chemistry, 2021).
